# Patent USRE37781E1, “Substituted cyclic carbonyls and derivatives thereof useful as retroviral protease inhibitors” (DuPont Pharmaceuticals Company, priority 1991, dated 2002)
# Where two headings read alike, the source gives them in different places.
# Legend:
# [1] = biological target: single-chain tethered dimer of HIV protease (Human immunodeficiency virus 1, UniProt P04585); assay: biochemical; format: biochemical; design: fused on or other part: A second copy of the same protease unit is joined to the first by a short peptide tether, giving one polypeptide
# HIV-1 (RF) in MT-2 cells = assay: microbe, parasite or virus in culture; format: cell-based; conditions: Table 2d, class symbols
# Method in brief: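 Read-out: gag and pol viral RNA captured by 5′-biotinylated oligonucleotides on streptavidin-coated wells, detected with alkaline phosphatase-linked reporter oligonucleotides, calibrated against BH10 in vitro transcripts. Virus stocks (RF, MN, IIIB) come from H9 cultures; MT-2 host cells kept in RPMI 1640, 5% FCS.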
# [2] = Table 2d; class symbols; read-out: HPLC K1
# [3] = read-out: HPLC K1; Table 2d; class symbols
# [4] = Human immunodeficiency virus 1, MT2, 48 h, read-out: IC90
SMILES,"Ki [1, 2]",IC90 (HIV-1 (RF) in MT-2 cells),"Ki [1, 3]",IC90 (HIV-1 (RF) in MT-2 cells; [4])
O=C1N(Cc2cccc(C=NCCO)c2)C(Cc2ccccc2)C(O)C(O)C(Cc2ccccc2)N1Cc1cccc(C2NCCO2)c1 (stereo not drawn) [Example 9K],10 to 1000 nM,+++ (+++=<10 μg/mL),,
O=C1N(Cc2cccc(Br)c2)C(Cc2ccccc2)C(O)C(O)C(Cc2ccccc2)N1Cc1cccc(C#CCO)c1 (stereo not drawn) [Example 9N],,,10 to 1000 nM,< 10 µg/mL
CC(O)c1cccc(CN2C(=O)N(Cc3cccc(Br)c3)C(Cc3ccccc3)C(O)C(O)C2Cc2ccccc2)c1 (stereo not drawn) [Example 9R],,,10 to 1000 nM,< 10 µg/mL
O=Cc1cc(CN2C(=O)N(Cc3ccc(O)cc3)C(Cc3ccccc3)C(O)C(O)C2Cc2ccccc2)ccc1O (stereo not drawn) [Example 11E],,,< 10 nM,< 10 µg/mL
NCCCCCCN1C(=O)N(CCCCCCN)C(Cc2ccccc2)C(O)C(O)C1Cc1ccccc1 (stereo not drawn) [Example 12A],,,> 1000 nM,> 100 µg/mL
NCCCCCCN1C(=O)N(Cc2ccccc2)C(Cc2ccccc2)C(O)C(O)C1Cc1ccccc1 (stereo not drawn) [Example 12B],,,10 to 1000 nM,> 100 µg/mL
O=C1NC(Cc2ccccc2)C(O)C(O)C(Cc2ccccc2)N1CCCCCCO (stereo not drawn) [Example 12C],,,< 10 nM,< 10 µg/mL
O=C1N(CCCCCCO)C(Cc2ccccc2)C(O)C(O)C(Cc2ccccc2)N1CCCCCCO (stereo not drawn) [Example 12D],,,< 10 nM,< 10 µg/mL
O=C1N(CCCCCCO)C(Cc2ccccc2)C(O)C(O)C(Cc2ccccc2)N1CC1CC1 (stereo not drawn) [Example 12E],,,< 10 nM,< 10 µg/mL
O=C1N(CCCCO)C(Cc2ccccc2)C(O)C(O)C(Cc2ccccc2)N1CCCCO (stereo not drawn) [Example 12F],,,10 to 1000 nM,10 to 100 µg/mL
O=C(O)CCCCCN1C(=O)N(CCCCCC(=O)O)C(Cc2ccccc2)C(O)C(O)C1Cc1ccccc1 (stereo not drawn) [Example 12G],,,< 10 nM,< 10 µg/mL
COC(=O)CCCCCN1C(=O)N(CCCCCC(=O)OC)C(Cc2ccccc2)C(O)C(O)C1Cc1ccccc1 (stereo not drawn) [Example 12H],,,10 to 1000 nM,10 to 100 µg/mL
COC(=O)CCCCCN1C(=O)N(CCCCCC(=O)O)C(Cc2ccccc2)C(O)C(O)C1Cc1ccccc1 (stereo not drawn) [Example 12I],< 10 nM,+ (+=>100 μg/mL),,
O=C1N(Cc2cccc(I)c2)C(Cc2ccccc2)C(O)C(O)C(Cc2ccccc2)N1Cc1cccc(I)c1 (stereo not drawn) [Example 12J],,,< 10 nM,< 10 µg/mL
O=C1N(CCCCCCCCO)C(Cc2ccccc2)C(O)C(O)C(Cc2ccccc2)N1CCCCCCCCO (stereo not drawn) [Example 12K],,,10 to 1000 nM,< 10 µg/mL
O=C1N(Cc2ccccc2)C(Cc2ccccc2)C(O)C(O)C(Cc2ccccc2)N1CC1CC1CO (stereo not drawn) [Example 12M],,,< 10 nM,< 10 µg/mL
O=C1NC(Cc2ccccc2)C(O)C(O)C(Cc2ccccc2)N1CC1CC1CO (stereo not drawn) [Example 12N],,,10 to 1000 nM,> 100 µg/mL
O=C1N(CCCCCCCO)C(Cc2ccccc2)C(O)C(O)C(Cc2ccccc2)N1CCCCCCCO (stereo not drawn) [Example 12P],,,10 to 1000 nM,< 10 µg/mL
NC(=O)Sc1cccc(CN2C(=O)N(Cc3cccc(SC(N)=O)c3)C(Cc3ccccc3)C(O)C(O)C2Cc2ccccc2)c1 (stereo not drawn) [Example 12Q],< 10 nM,+ (+=>100 μg/mL),,
O=C1NC(Cc2ccccc2)C(O)C(O)C(Cc2ccccc2)N1CCOCCO (stereo not drawn) [Example 12T],,,10 to 1000 nM,> 100 µg/mL
O=C1N(CCOCCO)C(Cc2ccccc2)C(O)C(O)C(Cc2ccccc2)N1CCOCCO (stereo not drawn) [Example 12U],,,> 1000 nM,10 to 100 µg/mL
CC(=O)OCCCCCCN1C(=O)N(CCCCCCO)C(Cc2ccccc2)C(O)C(O)C1Cc1ccccc1 (stereo not drawn) [Example 12V],,,10 to 1000 nM,< 10 µg/mL
CNC(=O)OCCCCCCN1C(=O)N(CCCCCCOC(=O)NC)C(Cc2ccccc2)C(O)C(O)C1Cc1ccccc1 (stereo not drawn) [Example 12W],,,10 to 1000 nM,10 to 100 µg/mL
O=C1NC(Cc2ccccc2)C(O)C(O)C(Cc2ccccc2)N1CCCCCCCO (stereo not drawn) [Example 12o],,,10 to 1000 nM,10 to 100 µg/mL
